Test results reported in ChEMBL document CHEMBL4359837, “Discovery of 2-(4-Chloro-3-(trifluoromethyl)phenyl)-N-(4-((6,7-dimethoxyquinolin-4-yl)oxy)phenyl)acetamide (CHMFL-KIT-64) as a Novel Orally Available Potent Inhibitor against Broad-Spectrum Mutants of c-KIT Kinase for Gastrointestinal Stromal Tumors” (J Med Chem, 2019).
Active and inactive are the calls of the source. No cut-off for these calls is given here.

Tests used:
[1] = molecular target: Mast/stem cell growth factor receptor Kit (Mus musculus) (UniProt P05532); test: Inhibition of c-KIT in mouse BAF3(transformed) cells assessed as growth inhibition after 72 hrs by CCK8 assay
[2] = Growth inhibition of mouse BAF3 cells measured after 72 hrs by CCK8 assay; format: cell-based
[3] = tested on: Mast/stem cell growth factor receptor Kit (Homo sapiens), P10721 [T670I]; settings: Mus musculus
Description: Inhibition of c-KIT T670I mutant in mouse BAF3(transformed) cells assessed as growth inhibition after 72 hrs by CCK8 assay

Mus musculus [4] = organism: Mus musculus; test: Inhibition of c-KIT D816E mutant in mouse BAF3(transformed) cells assessed as growth inhibition after 72 hrs by CCK8 assay
[5] = Growth inhibition of human GIST48B cells after 72 hrs by CCK8 assay; format: functional
Mus musculus [6] = organism: Mus musculus; test: Inhibition of c-KIT V654A/V559D double mutant in mouse BAF3(transformed) cells assessed as growth inhibition after 72 hrs by CCK8 assay
[7] = tested on: Mast/stem cell growth factor receptor Kit (Homo sapiens), P10721 [UNDEFINED MUTATION]; settings: GISTT1
Description: Inhibition of c-KIT 560 to 578 deletion mutant in human GISTT1 cells assessed as growth inhibition after 72 hrs by CCK8 assay

Mus musculus [8] = organism: Mus musculus; test: Inhibition of c-KIT S709F mutant in mouse BAF3(transformed) cells assessed as growth inhibition after 72 hrs by CCK8 assay
GISTT1 [9] = format: functional, Homo sapiens; settings: Mus musculus, GISTT1, po, 672 h; read-out: TGI
Mus musculus [10] = organism: Mus musculus; test: Inhibition of c-KIT T670E mutant in mouse BAF3(transformed) cells assessed as growth inhibition after 72 hrs by CCK8 assay
GISTT1 [11] = format: functional, cell-based; settings: Homo sapiens
[12] = tested on: Mast/stem cell growth factor receptor Kit (Homo sapiens), P10721 [D820Y]; settings: Mus musculus
Description: Inhibition of c-KIT D820Y mutant in mouse BAF3(transformed) cells assessed as growth inhibition after 72 hrs by CCK8 assay

Mus musculus [13] = organism: Mus musculus; test: Inhibition of c-KIT D820G mutant in mouse BAF3(transformed) cells assessed as growth inhibition after 72 hrs by CCK8 assay
Mus musculus [14] = organism: Mus musculus; test: Inhibition of c-KIT T670I/V559D double mutant in mouse BAF3(transformed) cells assessed as growth inhibition after 72 hrs by CCK8 assay
[15] = tested on: Mast/stem cell growth factor receptor Kit (Homo sapiens), P10721 [Y823D]; settings: Mus musculus
Description: Inhibition of c-KIT Y823D mutant in mouse BAF3(transformed) cells assessed as growth inhibition after 72 hrs by CCK8 assay

[16] = tested on: Mast/stem cell growth factor receptor Kit (Homo sapiens), P10721 [K642E]
[17] = tested on: Mast/stem cell growth factor receptor Kit (Homo sapiens), P10721 [V559G]; settings: Mus musculus
Description: Inhibition of c-KIT V559G mutant in mouse BAF3(transformed) cells assessed as growth inhibition after 72 hrs by CCK8 assay

GISTT1 [18] = format: functional, Homo sapiens
[19] = tested on: Mast/stem cell growth factor receptor Kit (Homo sapiens), P10721 [V559A]; settings: Mus musculus
Description: Inhibition of c-KIT V559A mutant in mouse BAF3(transformed) cells assessed as growth inhibition after 72 hrs by CCK8 assay

[20] = molecular target: T1, Platelet-derived growth factor receptor alpha (Homo sapiens, UniProt P16234); format: cell-based; settings: GISTT1
[21] = molecular target: T1, Platelet-derived growth factor receptor alpha; format: cell-based; settings: GISTT1; remark: listed apart in the source
[22] = molecular target: T1, Platelet-derived growth factor receptor alpha; format: cell-based; settings: GISTT1; remark: listed apart in the source
[23] = molecular target: T1, Platelet-derived growth factor receptor alpha; format: cell-based; settings: GISTT1; remark: listed apart in the source
[24] = molecular target: T1, Platelet-derived growth factor receptor alpha; format: cell-based; settings: GISTT1; remark: listed apart in the source
[25] = molecular target: T1, Platelet-derived growth factor receptor alpha; format: cell-based; settings: GISTT1; remark: listed apart in the source
[26] = molecular target: T1, Platelet-derived growth factor receptor alpha; format: cell-based; settings: GISTT1; remark: listed apart in the source

T1 sequence (P16234 whole entry): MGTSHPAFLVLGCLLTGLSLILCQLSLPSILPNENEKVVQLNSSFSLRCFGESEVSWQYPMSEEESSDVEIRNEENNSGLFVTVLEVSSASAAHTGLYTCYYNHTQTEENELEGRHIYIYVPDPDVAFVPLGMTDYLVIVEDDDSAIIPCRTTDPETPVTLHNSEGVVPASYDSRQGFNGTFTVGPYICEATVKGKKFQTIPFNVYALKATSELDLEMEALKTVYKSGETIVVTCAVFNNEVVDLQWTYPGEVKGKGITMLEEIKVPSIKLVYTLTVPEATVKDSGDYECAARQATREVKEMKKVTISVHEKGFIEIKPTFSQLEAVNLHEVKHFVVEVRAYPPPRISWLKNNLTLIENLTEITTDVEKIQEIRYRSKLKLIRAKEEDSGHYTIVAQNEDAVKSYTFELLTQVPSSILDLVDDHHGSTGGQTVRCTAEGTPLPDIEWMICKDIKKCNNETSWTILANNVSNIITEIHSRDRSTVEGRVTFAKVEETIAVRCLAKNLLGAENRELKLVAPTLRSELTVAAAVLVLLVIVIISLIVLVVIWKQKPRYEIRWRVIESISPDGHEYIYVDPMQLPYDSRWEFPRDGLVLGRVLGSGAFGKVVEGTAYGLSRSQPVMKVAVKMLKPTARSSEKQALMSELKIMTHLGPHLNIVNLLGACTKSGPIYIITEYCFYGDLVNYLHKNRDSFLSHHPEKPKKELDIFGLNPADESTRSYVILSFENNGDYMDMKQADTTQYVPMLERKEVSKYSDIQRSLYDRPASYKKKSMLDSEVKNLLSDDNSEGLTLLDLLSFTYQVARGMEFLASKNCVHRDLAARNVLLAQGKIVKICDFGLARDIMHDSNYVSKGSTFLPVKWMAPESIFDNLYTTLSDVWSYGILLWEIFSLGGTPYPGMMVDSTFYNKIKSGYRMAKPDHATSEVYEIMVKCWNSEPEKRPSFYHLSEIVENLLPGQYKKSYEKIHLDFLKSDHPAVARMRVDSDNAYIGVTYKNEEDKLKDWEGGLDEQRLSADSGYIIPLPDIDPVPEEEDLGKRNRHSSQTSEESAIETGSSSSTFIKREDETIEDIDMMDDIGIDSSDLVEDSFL
Mast/stem cell growth factor receptor Kit (Mus musculus), sequence (P05532 whole entry): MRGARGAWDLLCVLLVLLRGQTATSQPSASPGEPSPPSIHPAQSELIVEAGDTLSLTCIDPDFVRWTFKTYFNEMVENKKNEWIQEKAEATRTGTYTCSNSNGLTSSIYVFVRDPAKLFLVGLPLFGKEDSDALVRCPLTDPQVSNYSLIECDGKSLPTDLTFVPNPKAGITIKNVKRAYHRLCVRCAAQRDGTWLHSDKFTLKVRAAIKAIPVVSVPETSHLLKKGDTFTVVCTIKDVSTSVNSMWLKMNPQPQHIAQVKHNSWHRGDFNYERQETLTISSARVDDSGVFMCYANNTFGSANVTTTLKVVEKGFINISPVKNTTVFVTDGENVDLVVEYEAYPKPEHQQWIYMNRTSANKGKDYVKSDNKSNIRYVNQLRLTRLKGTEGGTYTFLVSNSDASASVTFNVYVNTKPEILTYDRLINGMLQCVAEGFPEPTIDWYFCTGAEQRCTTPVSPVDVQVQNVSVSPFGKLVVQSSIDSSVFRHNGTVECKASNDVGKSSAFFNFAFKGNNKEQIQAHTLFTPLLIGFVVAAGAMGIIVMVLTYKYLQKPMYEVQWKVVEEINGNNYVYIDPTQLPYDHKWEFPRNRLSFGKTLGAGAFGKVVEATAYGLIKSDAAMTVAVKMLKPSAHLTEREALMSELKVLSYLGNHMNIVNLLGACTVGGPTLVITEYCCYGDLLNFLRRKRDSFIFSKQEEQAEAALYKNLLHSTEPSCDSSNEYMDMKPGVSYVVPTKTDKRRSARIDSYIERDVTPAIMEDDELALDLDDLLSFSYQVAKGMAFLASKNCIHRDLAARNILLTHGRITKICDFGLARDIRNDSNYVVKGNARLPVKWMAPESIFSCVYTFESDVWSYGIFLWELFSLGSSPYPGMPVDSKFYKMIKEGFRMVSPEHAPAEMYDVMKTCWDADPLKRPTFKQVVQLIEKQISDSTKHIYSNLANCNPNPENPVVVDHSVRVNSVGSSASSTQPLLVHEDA
Mast/stem cell growth factor receptor Kit (Homo sapiens), P10721 [T670I], sequence (P10721 whole entry T670I): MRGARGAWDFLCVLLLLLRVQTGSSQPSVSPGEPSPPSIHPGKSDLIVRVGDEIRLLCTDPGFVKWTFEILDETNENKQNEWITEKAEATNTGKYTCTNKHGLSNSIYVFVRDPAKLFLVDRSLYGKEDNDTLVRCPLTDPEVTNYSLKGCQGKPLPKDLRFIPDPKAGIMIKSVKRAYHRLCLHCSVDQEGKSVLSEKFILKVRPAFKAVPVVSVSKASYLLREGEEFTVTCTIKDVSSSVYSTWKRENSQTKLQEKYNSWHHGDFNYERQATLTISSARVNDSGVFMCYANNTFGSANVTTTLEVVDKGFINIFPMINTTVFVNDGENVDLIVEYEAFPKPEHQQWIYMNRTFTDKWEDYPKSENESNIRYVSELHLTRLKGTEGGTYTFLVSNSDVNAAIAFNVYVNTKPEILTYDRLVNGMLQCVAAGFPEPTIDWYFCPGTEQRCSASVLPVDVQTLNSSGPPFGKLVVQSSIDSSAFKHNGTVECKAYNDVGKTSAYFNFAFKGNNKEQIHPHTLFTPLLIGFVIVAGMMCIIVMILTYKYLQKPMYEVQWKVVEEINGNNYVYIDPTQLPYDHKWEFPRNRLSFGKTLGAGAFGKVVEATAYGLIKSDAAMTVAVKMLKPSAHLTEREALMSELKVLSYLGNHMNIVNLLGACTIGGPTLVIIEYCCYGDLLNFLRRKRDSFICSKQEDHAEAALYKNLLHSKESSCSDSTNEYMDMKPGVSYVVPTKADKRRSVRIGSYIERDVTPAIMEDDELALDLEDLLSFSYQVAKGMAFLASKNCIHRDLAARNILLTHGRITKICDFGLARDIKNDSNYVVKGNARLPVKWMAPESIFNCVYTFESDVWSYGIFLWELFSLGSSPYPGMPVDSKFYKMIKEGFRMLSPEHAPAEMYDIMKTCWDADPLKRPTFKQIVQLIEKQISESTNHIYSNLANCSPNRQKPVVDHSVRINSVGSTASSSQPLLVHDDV
Mast/stem cell growth factor receptor Kit (Homo sapiens), P10721 [V559G], sequence (P10721 whole entry V559G): as the sequence (P10721 whole entry T670I) above, with V559G, I670T counted along it
Mast/stem cell growth factor receptor Kit (Homo sapiens), P10721 [UNDEFINED MUTATION], sequence (P10721 whole entry, looked up, stated change not applied): as the sequence (P10721 whole entry T670I) above, with I670T counted along it
Mast/stem cell growth factor receptor Kit (Homo sapiens), P10721 [K642E], sequence (P10721 whole entry K642E): as the sequence (P10721 whole entry T670I) above, with K642E, I670T counted along it
Mast/stem cell growth factor receptor Kit (Homo sapiens), P10721 [V559A], sequence (P10721 whole entry V559A): as the sequence (P10721 whole entry T670I) above, with V559A, I670T counted along it
Mast/stem cell growth factor receptor Kit (Homo sapiens), P10721 [D820Y], sequence (P10721 whole entry D820Y): as the sequence (P10721 whole entry T670I) above, with I670T, D820Y counted along it
Mast/stem cell growth factor receptor Kit (Homo sapiens), P10721 [Y823D], sequence (P10721 whole entry Y823D): as the sequence (P10721 whole entry T670I) above, with I670T, Y823D counted along it

SMILES | GI50 [1] | GI50 [3] | GI50 at 72 h [2] | further results
Cc1ccc(NC(=O)c2ccc(CN3CCN(C)CC3)cc2)cc1Nc1nccc(-c2cccnc2)n1 [IMATINIB] | 350 nM |  | > 10000 nM | GI50 (Mus musculus [4]): 174 nM; GI50 [5]: > 10000 nM; GI50 (Mus musculus [6]): 608 nM; GI50 [7]: 15 nM; GI50 (Mus musculus [8]): 115 nM; inhibition in vivo at 100 mg/kg/day (GISTT1 [9]): 66.4%; GI50 (Mus musculus [10]): 4080 nM; Activity (GISTT1 [11]): Active; GI50 [12]: 435 nM; GI50 (Mus musculus [13]): 337 nM; GI50 (Mus musculus [14]): > 10000 nM; GI50 [15]: 5870 nM; GI50 [16]: 48 nM; GI50 [17]: 8 nM; Activity (GISTT1 [18]): 1.54 g; GI50 [19]: 905 nM
COc1cc2nccc(Oc3ccc(NC(=O)CN4CCN(C)CC4)cc3)c2cc1OC | 7330 nM | 8520 nM | 8700 nM | 
COc1cc2nccc(Oc3ccc(NC(=O)Cc4ccc(Cl)c(C(F)(F)F)c4)cc3F)c2cc1OC | 116 nM | 21 nM | 1990 nM | 
COc1cc2nccc(Oc3ccc(NC(=O)CC4CCCCC4)cc3)c2cc1OC | 635 nM | 362 nM | 2470 nM | 
COc1cc2nccc(Oc3ccc(NC(=O)Cc4ccc(Cl)c(C(F)(F)F)c4)cc3C#N)c2cc1OC | 989 nM | 210 nM | 9970 nM | 
COc1cc2nccc(Oc3ccc(NC(=O)Cc4ccccc4C(F)(F)F)cc3)c2cc1OC | 424 nM | 309 nM | 6700 nM | 
COc1cc2nccc(Oc3ccc(NC(=O)Cc4ccc5ccccc5c4)cc3)c2cc1OC | 112 nM | 34 nM | 6230 nM | 
COc1cc2nccc(Sc3ccc(NC(=O)Cc4ccc(Cl)c(C(F)(F)F)c4)cc3)c2cc1OC | 154 nM | 110 nM | 3090 nM | 
COc1cc2nccc(Oc3ccc(NC(=O)Cc4ccc(Cl)c(Cl)c4)cc3)c2cc1OC | 342 nM | 37 nM | 2030 nM | 
COc1cc2nccc(Oc3ccc(C(=O)NCc4cccc(C(F)(F)F)c4)cc3)c2cc1OC | 2350 nM | 4610 nM | 10000 nM | 
COc1cc2nccc(Oc3ccc(C(=O)NCc4ccc(C(F)(F)F)cc4)cc3)c2cc1OC | 2900 nM | 668 nM | 6180 nM | 
COc1cc2nccc(Oc3ccc(NC(=O)Cc4ccc(F)c(F)c4)cc3)c2cc1OC | 312 nM | 309 nM | 670 nM | 
COc1ccc(CC(=O)Nc2ccc(Oc3ccnc4cc(OC)c(OC)cc34)cc2)cc1OC | 319 nM | 179 nM | 4130 nM | 
COc1cccc(CC(=O)Nc2ccc(Oc3ccnc4cc(OC)c(OC)cc34)cc2)c1 | 293 nM | 339 nM | 2780 nM | 
COc1cc2nccc(Oc3ccc(NC(=O)Cc4c(F)cccc4F)cc3)c2cc1OC | 2780 nM | 1700 nM | 1930 nM | 
COc1cc2nccc(Oc3ccc(NC(=O)Cc4ccccc4)cc3)c2cc1OC | > 10000 nM | > 10000 nM | > 10000 nM | 
COc1cc2nccc(Oc3ccc(NC(=O)Cc4ccncc4)cc3)c2cc1OC | 4710 nM | 6990 nM | 5130 nM | 
COc1cc2nccc(Nc3ccc(NC(=O)Cc4ccc(Cl)c(C(F)(F)F)c4)cc3)c2cc1OC | 742 nM | 400 nM | 2210 nM | 
COc1cc2nccc(N(C)c3ccc(NC(=O)Cc4ccc(Cl)c(C(F)(F)F)c4)cc3)c2cc1OC | 4280 nM | 8460 nM | 2670 nM | 
COc1cc2nccc(Oc3ccc(NC(=O)Cc4ccc5c(c4)OCO5)cc3)c2cc1OC | 110 nM | 167 nM | 3100 nM | 
COc1cc2nccc(Oc3ccc(NC(=O)Cc4cccc(F)c4)cc3)c2cc1OC | 923 nM | 342 nM | 1000 nM | 
Cc1ccc(NC(=O)c2ccc(CN(CCN(C)C)C(=O)c3ccccn3)cc2)cc1Nc1nccc(-c2cccnc2)n1 |  |  |  | inhibition [20]: Active; inhibition [21]: Active; inhibition [22]: Active; Activity (GISTT1 [11]): Active; inhibition [23]: Active; inhibition [24]: Active; inhibition [25]: Active; inhibition [26]: Active
COc1cc2nccc(Oc3ccc(NC(=O)C4(c5ccccc5)CC4)cc3)c2cc1OC | > 10000 nM | > 10000 nM | > 10000 nM | 
COc1cc2nccc(Oc3ccc(NC(=O)Cc4ccc(Cl)c(C(F)(F)F)c4)cc3C(F)(F)F)c2cc1OC | 3000 nM | 2840 nM | 2920 nM | 

Continued, in another order:

GI50 [1] | GI50 [3] | SMILES | GI50 at 72 h [2] | further results
22 nM | 11 nM | COc1cc2nccc(Oc3ccc(NC(=O)Cc4ccc(C(F)(F)F)cc4)cc3)c2cc1OC | 2160 nM | 
24 nM | 13 nM | COc1cc2nccc(Oc3ccc(NC(=O)Cc4ccc(F)c(C(F)(F)F)c4)cc3)c2cc1OC | 1030 nM | 
61 nM | 75 nM | COc1cc2nccc(Oc3ccc(NC(=O)Cc4ccc(Cl)c(C(F)(F)F)c4)c(C)c3)c2cc1OC | 4860 nM | 
27 nM | 15 nM | COc1cc2nccc(Oc3ccc(NC(=O)Cc4ccc(C)c(C)c4)cc3)c2cc1OC | 6420 nM | 
49 nM | 18 nM | COc1cc2nccc(Oc3ccc(NC(=O)Cc4ccc(Cl)c(C(F)(F)F)c4)c(F)c3)c2cc1OC | 3210 nM | 
105 nM | 9 nM | COc1cc2nccc(Oc3ccc(NC(=O)Cc4ccc(Cl)c(C(F)(F)F)c4)cc3C)c2cc1OC | 7050 nM | 
17 nM | 14 nM | COc1cc2nccc(Oc3ccc(NC(=O)Cc4ccc(C)c(C(F)(F)F)c4)cc3)c2cc1OC | 7260 nM | 
34 nM | 1560 nM | COc1cc2nccc(Oc3ccc(NC(=O)Cc4ccc(Cl)c(C(F)(F)F)c4)cc3OC)c2cc1OC | 8480 nM | 
78 nM | 56 nM | COc1cc2nccc(Oc3ccc(NC(=O)Cc4ccc(Cl)c(C(F)(F)F)c4)cc3Cl)c2cc1OC | 9450 nM | 
40 nM | 285 nM | COc1cc2nccc(Oc3ccc(NC(=O)Cc4ccc(F)cc4F)cc3)c2cc1OC | 704 nM | 
81 nM | 70 nM | COc1cc2nccc(Oc3ccc(NC(=O)Cc4ccc(Cl)c(C(F)(F)F)c4)c(Cl)c3)c2cc1OC | 8220 nM | 
57 nM |  | CCC(=O)NCC1CCN(c2ccc(NC(=O)Nc3cccc(Oc4ccnc5cc(OC)c(OC)cc45)c3)cc2C(F)(F)F)CC1 | > 10000 nM | 
20 nM | 1 nM | COc1cc2nccc(Oc3ccc(NC(=O)Cc4cccc(C(F)(F)F)c4)cc3)c2cc1OC | 1890 nM | 
